The values that follow come from article PMC6930633, “Synthesis and Biological Evaluation of BODIPY-PF-543” (Molecules, 2019).

The experiment has as its target T1, Sphingosine kinase 1 (SK1) (Homo sapiens, UniProt Q9NYA1).
T1 construct: gene SPHK1
Description: recombinant SK1 luminescent ATP-detection kinase activity assay (Echelon kit). It is filed as biochemical.

T1 sequence (Q9NYA1 whole entry): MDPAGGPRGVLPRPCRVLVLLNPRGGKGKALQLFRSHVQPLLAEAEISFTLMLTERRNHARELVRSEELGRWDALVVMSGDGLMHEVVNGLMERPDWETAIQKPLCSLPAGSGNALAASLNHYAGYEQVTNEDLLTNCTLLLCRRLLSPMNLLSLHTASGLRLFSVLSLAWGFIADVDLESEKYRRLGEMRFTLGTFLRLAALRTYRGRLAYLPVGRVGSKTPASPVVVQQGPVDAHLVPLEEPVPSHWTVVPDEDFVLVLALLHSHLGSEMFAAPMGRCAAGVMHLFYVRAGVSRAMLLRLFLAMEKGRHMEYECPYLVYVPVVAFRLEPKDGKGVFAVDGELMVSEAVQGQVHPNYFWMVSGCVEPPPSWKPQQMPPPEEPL

Turning to `CC1=CC(C)=[N+]2C1=C(c1ccc(-c3cn(Cc4cc(C)cc(OCc5ccc(CN6CCC[C@@H]6CO)cc5)c4)nn3)cc1)c1c(C)cc(C)n1[B-]2(F)F` [compound 2, (R)-(1-(4-((3-((4-(4-(5,5-Difluoro-1,3,7,9-tetramethyl-5H-4l4,5l4-dipyrrolo[1,2-c:2’,1’-f][1,3,2]diazaborinin-10-yl)phenyl)-1H-1,2,3-triazol-1-yl)methyl)-5-methylphenoxy)methyl)benzyl)pyrrolidin-2-yl)methanol], the IC50 was 19.9 nM.

As usually defined, the IC50 is the concentration that gives 50% inhibition.
